These results are taken from PubChem BioAssay (NCI).

Structures are written as SMILES.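 Compound exposure: 48 hours, 5 concentrations, 96-well plates. At the TGI there is no net growth.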

Test systems include DMS 114 small cell lung; DMS 273 small cell lung; KM20L2 colon; LXFL 529 NSCLC; MDA-N; P388 leukemia; P388/ADR leukemia; SN12K1 renal.
What all share (test): NCI tumour cell line growth inhibition, 48 h

Regarding `COc1cc(Cc2ccc3c(c2C#N)N(C)c2ccccc2S3)cc(OC)c1OC`, the TGI in the assay with DMS 114 small cell lung, in the assay on DMS 273 small cell lung, in the assay with KM20L2 colon and in the assay with LXFL 529 NSCLC was > 100 µM each time.

For the compound `C/C(=N\NC(=S)Nc1ccc(Cl)cc1)c1nc2ncccc2[nH]1`, the TGI in the assay on MDA-N was 23.1 µM.

Take `CN(CCO)/N=N/c1nc[nH]c1C(N)=O`: the TGI in the assay on DMS 114 small cell lung, in the assay on DMS 273 small cell lung, with KM20L2 colon and with LXFL 529 NSCLC was > 100 µM throughout.

The compound `CCOC(=O)Oc1ccc2c(c1)c(=O)c1c(NCCCN(CC)CC)ccc3nnn2c31` registered a TGI with MDA-N of 20.6 µM.

As to `Cc1nc(N(CCO)CCO)c2sc(=S)n(-c3ccccc3)c2n1`, in the assay on LXFL 529 NSCLC, the TGI is > 100 µM.

As for `NC(=S)N/N=C/c1ccc(OC(=O)COc2ccccc2Cl)cn1`, the TGI in the assay with DMS 273 small cell lung is > 71.6 µM; with KM20L2 colon, > 100 µM; in the assay with P388 leukemia, 13.4 µM; in the assay on P388/ADR leukemia it was 20.7 µM; with SN12K1 renal, > 100 µM.

Regarding `O=c1oc2c(ccc3c(O)cccc32)c2c1CCCC2`, the TGI in the assay with MDA-N was > 100 µM.

Regarding `C/C([O-])=C(/c1nc(-c2ccc([N+](=O)[O-])o2)no1)[n+]1cc(C)ccc1C`, the TGI in the assay on DMS 114 small cell lung was 38.9 µM; in the assay with DMS 273 small cell lung, 26.1 µM; in the assay with KM20L2 colon, 27.5 µM; in the assay with P388 leukemia, > 100 µM; with P388/ADR leukemia, > 100 µM; in the assay on SN12K1 renal, 28.6 µM.

`BrC1=CN2C[n+]3cc(Br)c4ccccc4c3N=C2c2ccccc21` had a TGI in the assay with MDA-N of 21.4 µM.

As to `CCOC(=O)C(=O)Nc1cccc(C)c1C`, the TGI in the assay with DMS 114 small cell lung, with DMS 273 small cell lung, in the assay on KM20L2 colon and with LXFL 529 NSCLC was > 100 µM throughout.
